These results are taken from patent US12612389B2, “Benzofuran-based N-acylhydrazone derivative and pharmaceutical composition comprising same” (KOREA RESEARCH INSTITUTE OF BIOSCIENCE AND BIOTECHNOLOGY, priority 2019, dated 2026).

One may read the IC50 as the concentration that gives 50% inhibition. For orientation: half-life means how long it takes for the measured level to halve.

A value given as a limit tells only on which side of the number the result lay.

The nature of series [1]: Metabolic stability test in liver microsomes. In kind it is in vitro ADME. Particulars: 0.5 mg protein/mL, 37° C. On the procedure: (§1) The test compounds at a concentration of […] were administered in the presence or absence of NADPH (1 mM) to liver […] (0.5 mg protein/mL) of humans, rats and mice, and metabolic stability was tested at 37° C. for 30 minutes. In addition, buspirone was used as a positive control. Results thereof are shown in Table below and FIGS. 4A to 4E.

Another series concerns MCF7/ADR. The experiment in a line: Anti-proliferative activity test in cancer cells exhibiting multidrug resistance (MTT). The conditions noted are these: ratio IC50 MCF7/ADR to IC50 MCF7. In kind it is cell-based. On the procedure: (§2) HeLa cells (American Type Culture Collection: ATCC, USA), a human cervical cancer cell line, were seeded in a 96-well plate at 3×10^3 cells/well, and the cells were then treated with compounds of Examples or Comparative Example according to the present invention and grown for 2 days. Then, MTT (3-(4,5-dimethylthiazol-2-yl)-2,5-diphenyltetrazolium bromide) reagent was added at 10 μL/well. […] The data shown in Table below are mean values of results obtained by repeating the analysis twice. Specifically, K562 and MCF7 (Bio Evaluation Center, Korea Research Institute of Bioscience and Biotechnology, Korea) and multidrug-resistant cell lines of each of these cell lines, i.e., K562/ADR and MCF7/ADR (Bio Evaluation Center, Korea Research Institute of Bioscience and Biotechnology, Korea), were cultured on microtiter plates (1-3×10^3 cells/well). […] The data shown in Table below are mean values of results obtained by repeating the analysis three times.

The test system of a further series is K562/ADR. Described as above. Type of series: cell-based. Particulars: ratio IC50 K562/ADR to IC50 K562. On the procedure:
as §2

The subject of another series is HeLa cells. The experiment in a line: Anti-proliferative activity test in HeLa cell line (MTT). Type of series: cell-based. Particulars: Homo sapiens, 48 h, grown for 2 days, mean of 2. On the procedure:
HeLa cells (American Type Culture Collection: ATCC, USA), a human cervical cancer cell line, were seeded in a 96-well plate at 3×10^3 cells/well, and the cells were then treated with compounds of Examples or Comparative Example according to the present invention and grown for 2 days. Then, MTT (3-(4,5-dimethylthiazol-2-yl)-2,5-diphenyltetrazolium bromide) reagent was added at 10 μL/well. After 2 hours, absorbance was measured at “OD 450” and statistical values were obtained using Prism™6 program. The data shown in Table below are mean values of results obtained by repeating the analysis twice.

Series [2] in a line: Stability test in plasma. In kind it is in vitro ADME. Details: Residue % (180 minutes elapsed), Mean: dose or concentration left out as unconfirmed. Particulars: 37° C. On the procedure: In order to test the stability (in vivo) of the Example compounds according to the present invention, the compounds of Examples 2, 3, 4, 8 and 15 were administered intravenously, and plasma concentrations over time were observed. In addition, procaine was used as a positive control. Plasma stability was measured three times by administering the test compound at a concentration […] to human, rat, or mouse plasma (90 μL) at 37° C. Results thereof are shown in Table below and FIGS. 3A to 3E.

Series [3] is described as follows: Stability test in plasma. Type of series: in vitro ADME. Particulars: Rat plasma, 37° C.; for Residue % (180 minutes elapsed), Mean: 5 mM. On the procedure: In order to test the stability (in vivo) of the Example compounds according to the present invention, the compounds of Examples 2, 3, 4, 8 and 15 were administered intravenously, and plasma concentrations over time were observed. In addition, procaine was used as a positive control. Plasma stability was measured three times by administering the test compound at a concentration of 5 mM to human, rat, or mouse plasma (90 μL) at 37° C. Results thereof are shown in Table below and FIGS. 3A to 3E.

A short description of series [4]: Stability in buffer (line of the metabolic stability test). In kind it is in vitro ADME. On the procedure:
as §1

On to `O=C1CC2(CCCC2)CC(=O)N1CCCCN1CCN(c2ncccn2)CC1` [Buspirone, buspirone, reference compound], for which the “Residue (%) after culturing for 30 min” value amounted to 2.21 ± 0.03% in series [1] (Human, +NADPH); 91.06 ± 0.40% in series [1] (Human, −NADPH); 0.32 ± 0.05% in series [1] (Mouse, +NADPH); 94.74 ± 0.74% in series [1] (Mouse, −NADPH); 0.41 ± 0.02% in series [1] (Rat, +NADPH); 93.08 ± 1.21% in series [1] (Rat, −NADPH).
With `COc1cc2c(c(OC)c1OC)-c1ccc(OC)c(=O)cc1[C@@H](NC(C)=O)CC2` [Colchicine, colchicine], the “Resistance Factor” value in the series on MCF7/ADR amounted to 34.15; with K562/ADR, 22.91.
`CCOC(=O)Cn1c(C)c(/C=N/NC(=O)c2cc3c(ccc4ccccc43)o2)c2ccccc21` [Comparative Example 1, (E)-ethyl 2-(2-methyl-3-((2-(naphtho[2,1-b]furan-2-carbonyl)hydrazono)methyl)-1H-indol-1-yl)acetate, reference compound] yielded an IC50 in the series with HeLa cells of 562 nM.
With `Cc1ccc2oc(C(=O)N/N=C/c3c(Cl)[nH]c4ccccc34)cc2c1` [Example 1, (E)-N′-[(2-chloro-1H-indol-3-yl)methylene]-5-methylbenzofuran-2-carbohydrazide], the 50% inhibitory concentration (IC50) with HeLa cells came to 3880 nM.
Consider `Cc1ccc2oc(C(=O)N/N=C/c3c(Cl)n(C)c4ccccc34)cc2c1` [Example 2, (E)-N′-[(2-chloro-1-methyl-1H-indol-3-yl)methylene]-5-methylbenzofuran-2-carbohydrazide], for which the “Residue % (180 minutes elapsed), Mean” value is 90.43% in “Stability test in plasma [2]” (Human plasma), 55.82% in the series “Stability test in plasma [2]” (Mouse plasma) and 75.82% in the series “Stability test in plasma [3]”. Moreover, the half-life at 5 mM in “Stability test in plasma [2]” (Human plasma), in the series “Stability test in plasma [2]” (Mouse plasma) and in “Stability test in plasma [3]” was greater than 3 h throughout. In addition, the “Residue (%) after culturing for 30 min” value was determined as 8.69 ± 0.44% in series [1] (Human, +NADPH); 36.40 ± 1.90% in series [1] (Human, −NADPH); 2.84 ± 0.34% in series [1] (Mouse, +NADPH); 11.59 ± 1.06% in series [1] (Mouse, −NADPH); 2.99 ± 0.64% in series [1] (Rat, +NADPH); 41.45 ± 0.93% in series [1] (Rat, −NADPH). In series [4], the “Residue (%) after culturing for 30 min” value is on record as 77.94 ± 7.04%. This compound also yielded a 50% inhibitory concentration (IC50) with HeLa cells of 892 nM.
As to `CCOC(=O)Cn1c(Cl)c(/C=N/NC(=O)c2cc3cc(C)ccc3o2)c2ccccc21` [Example 3, ethyl (E)-2-{2-chloro-3-[(2-(5-methylbenzofuran-2-carbonyl)hydrazinylidene)methyl]-1H-indol-1-yl}acetate], the figures for the “Residue % (180 minutes elapsed), Mean” value in “Stability test in plasma [2]” (Human plasma), in the series “Stability test in plasma [2]” (Mouse plasma) and in “Stability test in plasma [3]” were 56.52%, 0.12% and 0.21%, respectively. The half-life at 5 mM is greater than 3 h in “Stability test in plasma [2]” (Human plasma), 0.0933 h in “Stability test in plasma [2]” (Mouse plasma) and 0.0767 h in “Stability test in plasma [3]”. Besides, the “Residue (%) after culturing for 30 min” value was 12.34 ± 0.69% in series [1] (Human, +NADPH); 22.26 ± 0.72% in series [1] (Human, −NADPH); 2.50 ± 0.11% in series [1] (Mouse, +NADPH); 6.81 ± 0.17% in series [1] (Mouse, −NADPH); 1.39 ± 0.12% in series [1] (Rat, +NADPH); 8.53 ± 0.46% in series [1] (Rat, −NADPH). In addition, the “Residue (%) after culturing for 30 min” value in series [4] is reported as 89.02 ± 4.39%. In the series with HeLa cells, the 50% inhibitory concentration (IC50) was found to be 243 nM.
`CCOCCn1c(Br)c(/C=N/NC(=O)c2cc3cc(C)ccc3o2)c2ccccc21` [Example 5, (E)-N′-[(2-bromo-1-(2-ethoxyethyl)-1H-indol-3-yl]methylene}-5-methylbenzofuran-2-carbohydrazide] showed an IC50 in the series with HeLa cells of 263 nM.
In the series with HeLa cells, `CCOCCn1c(C(F)(F)F)c(/C=N/NC(=O)c2cc3cc(C)ccc3o2)c2ccccc21` [Example 6, (E)-N′-{[1-(2-ethoxyethyl)-2-(trifluoromethyl)-1H-indol-3-yl]methylene}-5-methylbenzofuran-2-carbohydrazide] showed an IC50 of 1220 nM.
Consider `COCCn1c(Cl)c(/C=N/NC(=O)c2cc3cc(C)ccc3o2)c2ccccc21` [Example 7, (E)-N′-[(2-chloro-1-(2-methoxyethyl)-1H-indol-3-yl]methylene}-5-methylbenzofuran-2-carbohydrazide], for which half-maximal inhibition in the series with HeLa cells (IC50) was put at 233 nM.
For `CCOCCn1c(Cl)c(/C=N/NC(=O)c2cc3cc(C)ccc3o2)c2ccc(OC)cc21` [Example 9, (E)-N′-[(2-chloro-1-(2-ethoxyethyl)-6-methoxy-1H-indol-3-yl]methylene}-5-methylbenzofuran-2-carbohydrazide], in the series with HeLa cells, half-maximal inhibition (IC50) required 232 nM.
`CCOCCn1c(Cl)c(/C=N/NC(=O)c2cc3cc(C)ccc3o2)c2cc(F)ccc21` [Example 10, (E)-N′-[(2-chloro-1-(2-ethoxyethyl)-5-fluoro-1H-indol-3-yl]methylene}-5-methylbenzofuran-2-carbohydrazide]: in the series on HeLa cells, the IC50 came out at 221 nM.
Consider `CCOCCn1c(Cl)c(/C=N/NC(=O)c2cc3cc(C)ccc3o2)c2cc(Cl)ccc21` [Example 11, (E)-N′-[(2,5-dichloro-1-(2-ethoxyethyl)-1H-indol-3-yl]methylene}-5-methylbenzofuran-2-carbohydrazide], for which the midpoint of inhibition in the series with HeLa cells, the IC50, lay at 243 nM.
On the same count and under the same terms, under `CCOCCn1c(Cl)c(/C=N/NC(=O)c2cc3cc(C)ccc3o2)c2cc(OC(F)(F)F)ccc21` [Example 12, (E)-N′-[(2-chloro-1-(2-ethoxyethyl)-5-(trifluoromethoxy)-1H-indol-3-yl]methylene}-5-methylbenzofuran-2-carbohydrazide] stands 619 nM; under `CCOCCn1c(Cl)c(/C=N/NC(=O)c2cc3cc(C)ccc3o2)c2cc(C)ccc21` [Example 13, (E)-N′-[(2-chloro-1-(2-ethoxyethyl)-5-methyl-1H-indol-3-yl]methylene}-5-methylbenzofuran-2-carbohydrazide], 337 nM; under `CCOCCn1c(Cl)c(/C=N/NC(=O)c2cc3cc(OC)ccc3o2)c2ccccc21` [Example 14, (E)-N′-[(2-chloro-1-(2-ethoxyethyl)-1H-indol-3-yl]methylene}-5-methoxybenzofuran-2-carbohydrazide], 262 nM.
The compound `CCOCCn1c(Cl)c(/C=N/NC(=O)c2cc3cc(Cl)ccc3o2)c2ccccc21` [Example 16, (E)-5-chloro-N′-{[2-chloro-1-(2-ethoxyethyl)-1H-indol-3-yl]methylene}benzofuran-2-carbohydrazide] gave an IC50 in the series with HeLa cells of 455 nM.
`CCOCCn1c(Cl)c(/C=N/NC(=O)c2cc3c(OC)cc(OC)cc3o2)c2ccccc21` [Example 18, (E)-N′-[(2-chloro-1-(2-ethoxyethyl)-1H-indol-3-yl]methylene}-4,6-dimethoxybenzofuran-2-carbohydrazide] yielded a half-maximal inhibitory concentration (IC50) in the series on HeLa cells of 563 nM.
As for `CCOCCn1c(Cl)c(/C=N/NC(=O)c2cc3cc(NC(C)=O)ccc3o2)c2ccccc21` [Example 19, (E)-N′-{2-[2-((2-chloro-1-(2-ethoxyethyl)-1H-indol-3-yl)methylene]hydrazine-1-carbonyl}benzofuran-5-yl)acetamide], the IC50 with HeLa cells amounted to 4520 nM.
Still for that read-out and setting: under `CCOC(=O)Cn1c(C)c(/C=N/NC(=O)c2cc3c(OC)cc(OC)cc3o2)c2ccccc21` [Example 20, (E)-ethyl-2-(3-((2-(4,6-dimethoxybenzofuran-2-carbonyl) hydrazinylidene)methyl)-2-methyl-1H-indol-1-yl)acetate] stands 500 nM.
With `CCN(CC)CCOC(=O)c1ccc(N)cc1` [Procaine, procaine, reference compound], the figures for the “Residue % (180 minutes elapsed), Mean” value in “Stability test in plasma [2]” (Human plasma), in “Stability test in plasma [2]” (Mouse plasma) and in “Stability test in plasma [3]” were 0.45%, 1.06% and 1.89%, respectively.
